Paper PMC6344987 (BMC Complementary and Alternative Medicine, 2019)

Tests used:
CYP3A4 = assay: P450-Glo CYP3A4 (Luciferin-IPA) activity in primary isolated rat hepatocytes; format: in vitro ADME; conditions: n = 6; for CYP3A4 activity relative to untreated isolated hepatocytes, in combination with warfarin: combined with warfarin 3 μg/ml, pomegranate peel extract 120, ellagic acid 48, guava leaves extract 294, quercetin 15 μg/ml; for CYP3A4 activity relative to untreated isolated hepatocytes: substance alone, ketoconazole 1, warfarin 3, pomegranate peel extract 120, ellagic acid 48, guava leaves extract 294, quercetin 15 μg/ml
Method: (§1) The liver of anaesthetized rat with inhaled isoflurane were perfused with collagenase enzyme as described by. Liver cells were dispersed gently in a sterile petri dish, and prepared for hepatocyte culture as described elsewhere. Cell were plated at a final concentration of 50,000 cell/100 μl and seeded in 96 well plates (100 μl). Cells were left to recover and grow overnight prior to the day of experiment.
Doses of chemicals selected for in vitro testing on primary cultured hepatocyte mitochondrial activity were estimated after literature review and preliminary work in order to obtain the IC50 values of tested compounds (data not shown). […] Directly after the addition of treatments, 25 μl of the lumenogenic substrate (Luciferin-H, Luciferin-ME or Luciferin-IPA) was added to each well. The plates were incubated at 37 °C for appropriate time according to manufacture protocol (Promega, USA). Later, 25 μl from culture media from each well was transferred into 96-well opaque white luminometer plate and equal amount of Luciferin detection reagent was added to each well to initiate the luminescent reaction. The reaction was allowed for 20 min at room temperature away from light. Finally, luminescence was read using GloMax®-Multi Detection System (Promega, USA).

CYP2C8 = assay: P450-Glo CYP2C8 (Luciferin-ME) activity in primary isolated rat hepatocytes; format: in vitro ADME; conditions: n = 6; for CYP2C8 activity relative to untreated isolated hepatocytes, in combination with warfarin: combined with warfarin 3 μg/ml, pomegranate peel extract 120, ellagic acid 48, guava leaves extract 294, quercetin 15 μg/ml
Method: as §1
(§2) Directly after the addition of treatments, 25 μl of the lumenogenic substrate (Luciferin-H, Luciferin-ME or Luciferin-IPA) was added to each well. The plates were incubated at 37 °C for appropriate time according to manufacture protocol (Promega, USA). Later, 25 μl from culture media from each well was transferred into 96-well opaque white luminometer plate and equal amount of Luciferin detection reagent was added to each well to initiate the luminescent reaction. The reaction was allowed for 20 min at room temperature away from light. Finally, luminescence was read using GloMax®-Multi Detection System (Promega, USA).

Sprague Dawley rats = assay: In vivo pharmacodynamic study: prothrombin time (PT) and INR in rat plasma after five days of oral treatment; conditions: oral daily for five days, WF 0.5 mg/kg, PPE 100 mg/kg, EA 40 mg/kg, GvL 250 mg/kg, QUE 12.75 mg/kg, mean ± SD (n = 8); for INR: calculated from PT; for PT: plasma on fifth day
Method: Adult Sprague Dawley laboratory rats were supplied by the Animal Facility of the University of […], Jordan). […] Rats were fasted overnight with free access to water. All experiments involving animals were conducted according to the institutional guidelines for the use of laboratory animals, which follows the guidelines of the Federation of European Laboratory Animal Science Associations (FELASA). The used animals were euthanized with cervical dislocation at the end of each experiment. The study protocol was revised and approved by the Committee of Scientific Research of the University of Petra (Approval number: 4-2016/2017, Date: 22/06/2017). The rats were weighed and randomized into ten groups (n = 8) and acclimatized for ten days before the experiment. Oral stainless steel gavage needle (Harvard Apparatus, Kent, UK) was used for oral administration of the treatments. Groups were treated daily for five days as following; group 1 received oral 0.5% CMC solution and served as a negative control. […] Group 3 received 100 mg/kg pomegranate peel extract suspension. […] Group 7 received 250 mg/kg guava leaves extract suspension. […] Plasma was separated, transferred directly into labeled Eppendorf tubes for PT and INR analysis. Reconstituted thromboplastin was added to 100 μl of each plasma sample in pre-warmed cuvette at 37 °C. […] INR was calculated from the detected PT according to the manufacturer's instructions.

CYP2C9 = assay: P450-Glo CYP2C9 (Luciferin-H) activity in primary isolated rat hepatocytes; format: in vitro ADME; conditions: n = 6; for CYP2C9 activity relative to untreated isolated hepatocytes, in combination with warfarin: combined with warfarin 3 μg/ml, pomegranate peel extract 120, ellagic acid 48, guava leaves extract 294, quercetin 15 μg/ml; for CYP2C9 activity relative to untreated isolated hepatocytes: substance alone, sulfamethoxazole 130, warfarin 3, pomegranate peel extract 120, ellagic acid 48, guava leaves extract 294, quercetin 15 μg/ml
Method: as §1, §2

in vivo = conditions: rat, po, 0.5 mg/kg
Method: On the fifth day, blood samples were collected from the 18 h fasted rats at different time intervals namely; at zero time, 0.5, 1, 2, 3, 4, 6, 8, 12, 24, 48 and 72 h from all groups and drawn into EDTA micro tubes. The micro tubes were centrifuged at 7000 RPM for 10 min. Plasma was separated, transferred directly into labeled Eppendorf tubes and stored at − 20 °C until requested for HPLC analysis.
Reversed-phase high-performance liquid chromatography (HPLC) analysis was used to separate samples using Finnigan surveyor system (Thermo Electron Corporation, San Jose, California, USA) on a hypersil™ BDS C-18 Column (150 mm × 4.6 mm, 5 μm) (Thermo Electron Corporation, San Jose, California, USA) and quantified using ultraviolet detection at 310 nm (UV-VIS Plus Detector). The mobile phase was a mixture of 60% acetonitrile HPLC grade and 40% water containing 1 ml triethylamine/l and phosphoric acid (pH 3.0) with a flow rate of 1.0 ml/min (LC pump plus) using 20 μl injection volume (Autosampler Plus). Metronidazole benzoate was used as an internal standard. ChromQuest 4.2.34 chromatography data system was implemented for data acquisition and handling. […] Consequently, different concentrations of working solutions were prepared for plasma spiking by mixing 25 μl of working solutions in 975 μl of plasma (Fig. 1, Table 1). […] The supernatant was then analyzed using an in house validated HPLC method at the Faculty of Pharmacy and Medical Sciences, University of Petra, Amman, Jordan (MSc thesis, Farah Al-Mamoori, 2016, University of Petra).
The calculated pharmacokinetic parameters presented in the current study were maximum plasma concentration (Cmax), area under the curve (AUC), area under the first moment curve (AUMC), mean residence time (MRT), half-life (t0.5), clearance (CL), volume of distribution (Vz), time at which Cmax was observed (Tmax) and elimination rate constant (Kel).

Row | SMILES | CYP3A4 activity relative to untreated isolated hepatocytes, in combination with warfarin (CYP3A4) | CYP2C8 activity relative to untreated isolated hepatocytes, in combination with warfarin (CYP2C8) | INR (Sprague Dawley rats) | PT (Sprague Dawley rats) | CYP2C9 activity relative to untreated isolated hepatocytes, in combination with warfarin (CYP2C9) | CYP2C9 activity relative to untreated isolated hepatocytes (CYP2C9) | CYP3A4 activity relative to untreated isolated hepatocytes (CYP3A4) | CYP2C8 activity relative to untreated isolated hepatocytes (CYP2C8; substance alone, trimethoprim 30, warfarin 3, pomegranate peel extract 120, ellagic acid 48, guava leaves extract 294, quercetin 15 μg/ml) | AUC (in vivo; Sprague-Dawley) | Cmax (in vivo; Sprague-Dawley) | MRT (in vivo; Sprague-Dawley) | Tmax (in vivo; Sprague-Dawley) | Vd/F (in vivo; Sprague-Dawley) | CL/F (in vivo)
1 | O=c1oc2c(O)c(O)cc3c(=O)oc4c(O)c(O)cc1c4c23 [EA, ellagic acid] | significantly inhibited | significantly inhibited | 1.43 ± 0.10 | 23 ± 1.31 s | significantly inhibited | significant inhibition |  |  |  |  |  |  |  | 
2 | O=c1c(O)c(-c2ccc(O)c(O)c2)oc2cc(O)cc(O)c12 [QUE, quercetin hydrate] | inhibited | inhibited | 1.39 ± 0.09 | 22.5 ± 1.20 s | inhibited | inhibited | inhibited | inhibited |  |  |  |  |  | 
3 | CC(=O)CC(c1ccccc1)c1c(O)c2ccccc2oc1=O (centres unmarked) [WF, Warfarin] |  |  | 19 ± 1 | 191 ± 12 s |  |  |  |  | 107 µg·h/mL | 3670 ± 663 ng/mL | 25 ± 5 h | 6 ± 8 h | 0.035 ± 0.015 L | 1.45 ± 0.5 mL/h
4 | CC(=O)N1CCN(c2ccc(OCC3COC(Cn4ccnc4)(c4ccc(Cl)cc4Cl)O3)cc2)CC1 (centres unmarked) [ketoconazole, reference compound] |  |  |  |  |  |  | significantly reduced |  |  |  |  |  |  | 
